The source of these data is ChEMBL document CHEMBL1909046, “DrugMatrix in vitro pharmacology data”.

The nature of experiment [1]: DRUGMATRIX: Sodium/nucleoside co-transporter radioligand binding (ligand: nitrobenzylthioinosine). Type of experiment: cell membranes, Cavia porcellus, Dunkin-Hartley, Cerebral cortex, Membrane. The settings on record: Not Active = under 50% inhibition at 10 µM.
For experiment [2], the target named is T1, Alpha-1D adrenergic receptor (Homo sapiens, UniProt P25100). Also: in other assays of this panel Not Active means under 50% inhibition at 10 µM.
T1 sequence (P25100 whole entry): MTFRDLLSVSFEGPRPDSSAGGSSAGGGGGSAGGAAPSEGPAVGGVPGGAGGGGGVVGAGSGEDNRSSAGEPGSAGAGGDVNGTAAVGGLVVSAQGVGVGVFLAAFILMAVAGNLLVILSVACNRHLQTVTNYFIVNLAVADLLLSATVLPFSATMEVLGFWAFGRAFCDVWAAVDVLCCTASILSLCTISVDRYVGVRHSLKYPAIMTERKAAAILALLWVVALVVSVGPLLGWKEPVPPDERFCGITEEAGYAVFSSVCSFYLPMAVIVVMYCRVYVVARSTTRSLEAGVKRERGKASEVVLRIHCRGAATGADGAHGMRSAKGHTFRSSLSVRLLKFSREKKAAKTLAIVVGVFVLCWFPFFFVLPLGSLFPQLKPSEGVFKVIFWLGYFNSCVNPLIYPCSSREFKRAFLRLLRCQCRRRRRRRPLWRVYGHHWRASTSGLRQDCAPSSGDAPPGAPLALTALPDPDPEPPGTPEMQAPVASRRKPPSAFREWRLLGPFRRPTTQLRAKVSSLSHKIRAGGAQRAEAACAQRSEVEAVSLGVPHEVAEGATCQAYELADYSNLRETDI
The format is cell membranes, HEK293, Membrane.

Experiment [3] is described as follows: DRUGMATRIX: Atrial Natriuretic Factor (ANF) radioligand binding (ligand: [125I] ANF (rat)). The format is cell membranes, Cavia porcellus, Dunkin-Hartley, Adrenal gland, Membrane. The settings on record: Not Active = under 50% inhibition at 10 µM.
A further experiment deals with T2, Substance-K receptor (Homo sapiens, UniProt P21452).
T2 sequence (P21452 whole entry): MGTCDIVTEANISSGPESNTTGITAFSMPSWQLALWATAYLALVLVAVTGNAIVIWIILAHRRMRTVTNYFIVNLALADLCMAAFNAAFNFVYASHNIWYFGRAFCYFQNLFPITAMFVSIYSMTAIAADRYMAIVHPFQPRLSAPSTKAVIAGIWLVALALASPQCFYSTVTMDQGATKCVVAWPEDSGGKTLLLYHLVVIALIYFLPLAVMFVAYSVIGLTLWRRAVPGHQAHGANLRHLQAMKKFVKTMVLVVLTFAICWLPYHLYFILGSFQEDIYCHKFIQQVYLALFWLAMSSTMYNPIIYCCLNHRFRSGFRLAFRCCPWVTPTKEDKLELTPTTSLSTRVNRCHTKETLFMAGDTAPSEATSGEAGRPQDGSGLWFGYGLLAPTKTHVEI
The format is cell membranes, CHO, Membrane. To be noted: cho.

Experiment [4] concerns the target Mitogen-activated protein kinase 14 (Homo sapiens, UniProt Q16539). The arrangement: species or system Escherichia coli.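 Also: inhibition of p38alpha enzyme activity in a biochemical kinase assay, with myelin basic protein serving as substrate; in other assays of this panel Not Active means under 50% inhibition at 10 µM.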
The target in experiment [5] is Tyrosine-protein kinase Fyn (Homo sapiens, UniProt P06241). Nature of the experiment: biochemical. Type of experiment: cell-based, Insect cells.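 Also: enzymatic inhibition of Fyn kinase activity measured with Poly(Glu:Tyr) as the phosphorylation substrate; in other assays of this panel Not Active means under 50% inhibition at 10 µM.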
Sequence of Tyrosine-protein kinase Fyn (P06241 whole entry): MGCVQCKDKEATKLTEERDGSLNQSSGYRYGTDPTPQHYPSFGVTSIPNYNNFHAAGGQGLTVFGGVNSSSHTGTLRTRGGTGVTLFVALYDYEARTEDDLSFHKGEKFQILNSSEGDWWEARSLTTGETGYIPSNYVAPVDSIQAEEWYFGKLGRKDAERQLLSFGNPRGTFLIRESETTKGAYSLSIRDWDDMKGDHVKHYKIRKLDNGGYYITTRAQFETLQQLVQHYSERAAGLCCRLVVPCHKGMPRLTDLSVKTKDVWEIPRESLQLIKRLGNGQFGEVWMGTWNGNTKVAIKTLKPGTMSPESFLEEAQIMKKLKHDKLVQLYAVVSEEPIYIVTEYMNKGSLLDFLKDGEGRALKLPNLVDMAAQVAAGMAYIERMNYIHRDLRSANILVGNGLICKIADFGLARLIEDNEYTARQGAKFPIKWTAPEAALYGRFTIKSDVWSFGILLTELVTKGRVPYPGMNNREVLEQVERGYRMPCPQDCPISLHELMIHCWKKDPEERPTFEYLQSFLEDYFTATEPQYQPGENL

Sequence of Mitogen-activated protein kinase 14 (Q16539 whole entry): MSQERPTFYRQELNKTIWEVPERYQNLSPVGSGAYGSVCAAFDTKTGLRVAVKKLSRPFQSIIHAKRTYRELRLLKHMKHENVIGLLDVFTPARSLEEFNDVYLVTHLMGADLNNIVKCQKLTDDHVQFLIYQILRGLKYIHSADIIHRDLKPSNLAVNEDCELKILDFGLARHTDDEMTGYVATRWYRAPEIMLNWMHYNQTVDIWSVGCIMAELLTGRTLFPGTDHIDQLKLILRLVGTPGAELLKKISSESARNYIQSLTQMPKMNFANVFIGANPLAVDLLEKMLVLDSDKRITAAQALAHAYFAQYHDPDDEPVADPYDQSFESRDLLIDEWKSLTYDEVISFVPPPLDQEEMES

The IC50 is the midpoint of a concentration-inhibition curve. One may read the Ki as the equilibrium dissociation constant of an inhibitor or competing ligand from its target. `C[C@@H]1CC[C@H]2[C@@H](C)C(=O)O[C@@H]3O[C@@]4(C)CC[C@@H]1[C@]32OO4` [ARTEMISININ]: the IC50 entry (in experiment [1]; in experiment [2] (hek293); in experiment [3]; at Substance-K receptor; in experiment [4]; in experiment [5] (insect cells)) was “Not Active” throughout. Also, the Ki entry in experiment [1] and in experiment [3] was “Not Active” throughout.

Turning to `CO[C@H]1[C@@H](O)[C@H](N)[C@@H](O[C@H]2O[C@H]([C@H](C)N)CC[C@H]2N)[C@H](O)[C@@H]1N(C)C(=O)CN` [ASTROMICIN], the IC50 entry (in experiment [1]; in experiment [2] (hek293); in experiment [3]; at Substance-K receptor; in experiment [4]; in experiment [5] (insect cells)) was “Not Active” in each case. Also, the Ki result in experiment [1] and in experiment [3] was “Not Active” in each case.

As for `[N-]=[N+]=CC(=O)OC[C@H](N)C(=O)O` [AZASERINE], the IC50 entry (in experiment [1]; in experiment [2] (hek293); in experiment [3]; at Substance-K receptor; in experiment [4]; in experiment [5] (insect cells)) was “Not Active” in each case. Besides, the Ki result in experiment [1] and in experiment [3] was “Not Active” in each case.

As for `CC[C@H]1OC(=O)[C@H](C)[C@@H](O[C@H]2C[C@@](C)(OC)[C@@H](O)[C@H](C)O2)[C@H](C)[C@@H](O[C@@H]2O[C@H](C)C[C@H](N(C)C)[C@H]2O)[C@](C)(O)C[C@@H](C)CN(C)[C@H](C)[C@@H](O)[C@]1(C)O` [AZITHROMYCIN], the IC50 entry (in experiment [1]; in experiment [2] (hek293); in experiment [3]; on Substance-K receptor; in experiment [4]; in experiment [5] (insect cells)) was “Not Active” throughout. The Ki entry in experiment [1] and in experiment [3] was “Not Active” in each case.

On to `CC(C)(C)c1ccc(S(=O)(=O)/C=C/C#N)cc1` [BAY-11-7085], for which the IC50 entry (in experiment [1]; in experiment [2] (hek293); in experiment [3]; on Substance-K receptor; in experiment [4]; in experiment [5] (insect cells)) was “Not Active” throughout. The Ki entry in experiment [1] and in experiment [3] was “Not Active” in each case.

For the molecule `CCc1oc2ccccc2c1C(=O)c1cc(Br)c(O)c(Br)c1` [BENZBROMARONE], the IC50 result was “Not Active” in experiment [1]; “Not Active” in experiment [2] (hek293); “Not Active” in experiment [3]; “Not Active” against Substance-K receptor; 1240 nM in experiment [4] (read-out: IC50); “Not Active” in experiment [5] (insect cells). Further, the Ki entry in experiment [1] and in experiment [3] was “Not Active” each time.

As to `O=c1cc(-c2ccccc2)oc2ccc3ccccc3c12` [BETA-NAPHTHOFLAVONE], the IC50 result in experiment [1] was “Not Active”; in experiment [2] (hek293) it was “Not Active”; in experiment [3], “Not Active”; on Substance-K receptor it was “Not Active”; in experiment [4], “Not Active”; in experiment [5] (read-out: IC50) it was 2510 nM. The Ki result in experiment [1] and in experiment [3] was “Not Active” in each case.

As to `CC(C)C[C@H]1C(=O)N2CCC[C@H]2[C@]2(O)O[C@](NC(=O)[C@@H]3C=C4c5cccc6[nH]c(Br)c(c56)C[C@H]4N(C)C3)(C(C)C)C(=O)N12` [BROMOCRIPTINE], the IC50 result was “Not Active” in experiment [1]; 30 nM in experiment [2] (read-out: IC50); “Not Active” in experiment [3]; “Not Active” against Substance-K receptor; “Not Active” in experiment [4]; “Not Active” in experiment [5] (insect cells). Moreover, the Ki entry was “Not Active” in experiment [1], 15 nM in experiment [2] (read-out: Ki) and “Not Active” in experiment [3].

As for `CS(=O)(=O)OCCCCOS(C)(=O)=O` [BUSULFAN], the half-maximal inhibitory concentration (IC50) result (in experiment [1]; in experiment [2] (hek293); in experiment [3]; at Substance-K receptor; in experiment [4]; in experiment [5] (insect cells)) was “Not Active” throughout. Further, the Ki result in experiment [1] and in experiment [3] was “Not Active” each time.

As to `O=C(/C=C/c1ccc(O)c(O)c1)OCCc1ccccc1` [CAFFEIC ACID PHENETHYL ESTER], the IC50 result in experiment [1] was “Not Active”; in experiment [2] (hek293) it was “Not Active”; in experiment [3] it was “Not Active”; against Substance-K receptor, “Not Active”; in experiment [4] it was “Not Active”; in experiment [5] (read-out: IC50), 4210 nM. For the same molecule, the Ki result in experiment [1] and in experiment [3] was “Not Active” each time.

For the molecule `COc1cc(CNC(=O)CCCC/C=C/C(C)C)ccc1O` [CAPSAICIN], the IC50 result (in experiment [1]; in experiment [2] (hek293); in experiment [3]; at Substance-K receptor; in experiment [4]; in experiment [5] (insect cells)) was “Not Active” throughout. Also, the Ki entry in experiment [1] and in experiment [3] was “Not Active” each time.

For the molecule `NC(=O)N1c2ccccc2C=Cc2ccccc21` [CARBAMAZEPINE], the IC50 result (in experiment [1]; in experiment [2] (hek293); in experiment [3]; against Substance-K receptor; in experiment [4]; in experiment [5] (insect cells)) was “Not Active” in each case. Besides, the inhibition constant (Ki) result in experiment [1] and in experiment [3] was “Not Active” each time.

Regarding `CCOC(=O)n1ccn(C)c1=S` [CARBIMAZOLE], the IC50 entry (in experiment [1]; in experiment [2] (hek293); in experiment [3]; at Substance-K receptor; in experiment [4]; in experiment [5] (insect cells)) was “Not Active” throughout. For the same molecule, the Ki entry in experiment [1] and in experiment [3] was “Not Active” each time.

In the case of `Oc1ccccc1O` [CATECHOL], the IC50 entry in experiment [1] is “Not Active”; in experiment [2] (hek293), “Not Active”; in experiment [3] it was “Not Active”; at Substance-K receptor it was “Not Active”; in experiment [4], “Not Active”; in experiment [5] (read-out: IC50) it was 17400 nM. In addition, the inhibition constant (Ki) result in experiment [1] and in experiment [3] was “Not Active” throughout.

Consider `CO[C@@]1(NC(=O)CSCC#N)C(=O)N2C(C(=O)O)=C(CSc3nnnn3C)CS[C@@H]21` [CEFMETAZOLE], for which the IC50 result (in experiment [1]; in experiment [2] (hek293); in experiment [3]; against Substance-K receptor; in experiment [4]; in experiment [5] (insect cells)) was “Not Active” throughout. Also, the Ki result in experiment [1] and in experiment [3] was “Not Active” each time.

On to `CN(C(=O)CCCOc1ccc2[nH]c(=O)ccc2c1)C1CCCCC1` [CILOSTAMIDE], for which the IC50 entry (in experiment [1]; in experiment [2] (hek293); in experiment [3]; on Substance-K receptor; in experiment [4]; in experiment [5] (insect cells)) was “Not Active” each time. Also, the Ki entry in experiment [1] and in experiment [3] was “Not Active” each time.

Turning to `CC(C)(Oc1ccc(C2CC2(Cl)Cl)cc1)C(=O)O` (stereo unspecified) [CIPROFIBRATE], the IC50 result (in experiment [1]; in experiment [2] (hek293); in experiment [3]; against Substance-K receptor; in experiment [4]; in experiment [5] (insect cells)) was “Not Active” throughout. Also, the Ki result in experiment [1] and in experiment [3] was “Not Active” throughout.

For `Nc1nc(Cl)nc2c1ncn2[C@H]1C[C@H](O)[C@@H](CO)O1` [CLADRIBINE], the IC50 entry (in experiment [1]; in experiment [2] (hek293); in experiment [3]; against Substance-K receptor; in experiment [4]; in experiment [5] (insect cells)) was “Not Active” in each case. The Ki result in experiment [1] and in experiment [3] was “Not Active” in each case.

`CC[C@H]1OC(=O)[C@H](C)[C@@H](O[C@H]2C[C@@](C)(OC)[C@@H](O)[C@H](C)O2)[C@H](C)[C@@H](O[C@@H]2O[C@H](C)C[C@H](N(C)C)[C@H]2O)[C@](C)(OC)C[C@@H](C)C(=O)[C@H](C)[C@@H](O)[C@]1(C)O` [CLARITHROMYCIN]: the IC50 entry (in experiment [1]; in experiment [2] (hek293); in experiment [3]; at Substance-K receptor; in experiment [4]; in experiment [5] (insect cells)) was “Not Active” throughout. Also, the inhibition constant (Ki) entry in experiment [1] and in experiment [3] was “Not Active” each time.

For `CCC[C@@H]1C[C@@H](C(=O)N[C@@H]([C@H]2O[C@H](SC)[C@H](O)[C@@H](O)[C@H]2O)[C@H](C)Cl)N(C)C1` [CLINDAMYCIN], the IC50 result (in experiment [1]; in experiment [2] (hek293); in experiment [3]; against Substance-K receptor; in experiment [4]; in experiment [5] (insect cells)) was “Not Active” in each case. The Ki entry in experiment [1] and in experiment [3] was “Not Active” in each case.
